Measurements from PubChem BioAssay (NCI).
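Five compound concentrations were applied to cells in 96-well plates for 48 hours; endpoints were derived by simple linear interpolation of the resulting dose-response curve. TGI denotes the concentration required for complete inhibition of growth.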

What was measured:
Experiment in all cases: DTP human tumour cell line panel, 48 h
LXFL 529 NSCLC = tested on: LXFL 529 NSCLC
RPMI-8226 leukemia = tested on: RPMI-8226 leukemia
DMS 273 small cell lung = tested on: DMS 273 small cell lung
HOP-18 NSCLC = tested on: HOP-18 NSCLC
A549 NSCLC = tested on: A549 NSCLC
786-0 renal = tested on: 786-0 renal
DLD-1 colon = tested on: DLD-1 colon
NCI-H23 lung = tested on: NCI-H23 lung
EKVX NSCLC = tested on: EKVX NSCLC
RXF-631 renal = tested on: RXF-631 renal
OVCAR-3 ovarian = tested on: OVCAR-3 ovarian
UO-31 renal = tested on: UO-31 renal
SK-MEL-5 melanoma = tested on: SK-MEL-5 melanoma
OVCAR-5 ovarian = tested on: OVCAR-5 ovarian
HL-60(TB) leukemia = tested on: HL-60(TB) leukemia
M19-MEL melanoma = tested on: M19-MEL melanoma
HOP-62 NSCLC = tested on: HOP-62 NSCLC
SK-MEL-28 melanoma = tested on: SK-MEL-28 melanoma
K-562 leukemia = tested on: K-562 leukemia
CCRF-CEM leukemia = tested on: CCRF-CEM leukemia
SF-268 CNS = tested on: SF-268 CNS
CAKI-1 renal = tested on: CAKI-1 renal
OVCAR-4 ovarian = tested on: OVCAR-4 ovarian
A498 renal = tested on: A498 renal
KM20L2 colon = tested on: KM20L2 colon
M14 melanoma = tested on: M14 melanoma
NCI-H460 lung = tested on: NCI-H460 lung
UACC-257 melanoma = tested on: UACC-257 melanoma
SN12C renal = tested on: SN12C renal
NCI-H226 lung = tested on: NCI-H226 lung
HCT-15 colon = tested on: HCT-15 colon
HCT-116 colon = tested on: HCT-116 colon
MALME-3M melanoma = tested on: MALME-3M melanoma
KM12 colon = tested on: KM12 colon
HOP-92 NSCLC = tested on: HOP-92 NSCLC
IGROV1 ovarian = tested on: IGROV1 ovarian
HCC-2998 colon = tested on: HCC-2998 colon
TK-10 renal = tested on: TK-10 renal
SF-539 CNS = tested on: SF-539 CNS
ACHN renal = tested on: ACHN renal
UACC-62 melanoma = tested on: UACC-62 melanoma
COLO 205 colon = tested on: COLO 205 colon
SF-295 CNS = tested on: SF-295 CNS
NCI-H522 lung = tested on: NCI-H522 lung
DMS 114 small cell lung = tested on: DMS 114 small cell lung
SW-620 colon = tested on: SW-620 colon
SNB-19 CNS = tested on: SNB-19 CNS
U251 CNS = tested on: U251 CNS
MOLT-4 leukemia = tested on: MOLT-4 leukemia
SNB-75 CNS = tested on: SNB-75 CNS
OVCAR-8 ovarian = tested on: OVCAR-8 ovarian
SK-OV-3 ovarian = tested on: SK-OV-3 ovarian
HT29 colon = tested on: HT29 colon
SNB-78 CNS = tested on: SNB-78 CNS

SMILES: O=C(CCc1n[nH]c(=S)o1)Nc1cc(Cl)c(Cl)cc1Cl
- TGI (LXFL 529 NSCLC): > 100 µM
- TGI (RPMI-8226 leukemia): 50.8 µM
- TGI (DMS 273 small cell lung): 72.5 µM
- TGI (HOP-18 NSCLC): > 100 µM
- TGI (A549 NSCLC): > 100 µM
- TGI (786-0 renal): 63.6 µM
- TGI (DLD-1 colon): 86.3 µM
- TGI (NCI-H23 lung): > 100 µM
- TGI (EKVX NSCLC): > 100 µM
- TGI (RXF-631 renal): > 100 µM
- TGI (OVCAR-3 ovarian): > 100 µM
- TGI (UO-31 renal): > 100 µM
- TGI (SK-MEL-5 melanoma): > 100 µM
- TGI (OVCAR-5 ovarian): > 100 µM
- TGI (HL-60(TB) leukemia): > 100 µM
- TGI (M19-MEL melanoma): > 100 µM
- TGI (HOP-62 NSCLC): > 100 µM
- TGI (SK-MEL-28 melanoma): > 100 µM
- TGI (K-562 leukemia): 49 µM
- TGI (CCRF-CEM leukemia): > 100 µM
- TGI (SF-268 CNS): > 100 µM
- TGI (CAKI-1 renal): > 100 µM
- TGI (OVCAR-4 ovarian): > 100 µM
- TGI (A498 renal): 91.8 µM
- TGI (KM20L2 colon): > 100 µM
- TGI (M14 melanoma): > 100 µM
- TGI (NCI-H460 lung): > 100 µM
- TGI (UACC-257 melanoma): > 100 µM
- TGI (SN12C renal): > 100 µM
- TGI (NCI-H226 lung): > 100 µM
- TGI (HCT-15 colon): 49.9 µM
- TGI (HCT-116 colon): 30 µM
- TGI (MALME-3M melanoma): > 100 µM
- TGI (KM12 colon): > 100 µM
- TGI (HOP-92 NSCLC): > 100 µM
- TGI (IGROV1 ovarian): > 100 µM
- TGI (HCC-2998 colon): > 100 µM
- TGI (TK-10 renal): > 100 µM
- TGI (SF-539 CNS): > 100 µM
- TGI (ACHN renal): > 100 µM
- TGI (UACC-62 melanoma): > 100 µM
- TGI (COLO 205 colon): > 100 µM
- TGI (SF-295 CNS): > 100 µM
- TGI (NCI-H522 lung): > 100 µM
- TGI (DMS 114 small cell lung): > 100 µM
- TGI (SW-620 colon): 31.4 µM
- TGI (SNB-19 CNS): > 100 µM
- TGI (U251 CNS): > 100 µM
- TGI (MOLT-4 leukemia): > 100 µM
- TGI (SNB-75 CNS): > 100 µM
- TGI (OVCAR-8 ovarian): > 100 µM
- TGI (SK-OV-3 ovarian): > 100 µM
- TGI (HT29 colon): > 100 µM
- TGI (SNB-78 CNS): > 100 µM
